Assay results taken from US20240336566A1, “CRYSTALLINE FORMS OF A COMPOUND FOR THE TARGETED DEGRADATION OF THE ANDROGEN RECEPTOR” (Arvinas Operations, Inc., priority 2023, published 2024).

Test: Co-crystal screen: XRPD post temperature cycling and post storage at 40° C./75% RH;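 on XRPD results, primary co-crystal screen post temperature cycling: value is the Compound A free base XRPD pattern number and 9 means a potential new one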
Format: physicochemical
Conditions: Compound A + 1.05 eq. co-former (= label)

Row | XRPD results, primary co-crystal screen post storage at 40° C./75% RH (1,4-Dioxane) | XRPD results, primary co-crystal screen post temperature cycling (1,4-Dioxane) | XRPD results, primary co-crystal screen post storage at 40° C./75% RH (DCM:Methanol (50:50 % v/v)) | XRPD results, primary co-crystal screen post temperature cycling (DCM:Methanol (50:50 % v/v)) | XRPD results, primary co-crystal screen post storage at 40° C./75% RH (THF) | XRPD results, primary co-crystal screen post temperature cycling (THF) | XRPD results, primary co-crystal screen post storage at 40° C./75% RH (DMSO:Water (50:50 % v/v)) | XRPD results, primary co-crystal screen post temperature cycling (DMSO:Water (50:50 % v/v)) | SMILES
1 | 4 | 9 | – | – | – | – | – | – | N[C@@H](Cc1ccccc1)C(=O)O [L-Phenylalanine]
2 | 4 | 9 | 2 | 2 | – | – | – | – | N[C@@H](Cc1ccc(O)cc1)C(=O)O [L-Tyrosine]
3 | – | – | 1 | 1 | 1 | 1 | – | – | COC(=O)c1ccc(O)cc1 [Methylparaben]
4 | 4 | 4 | 2 | 2 | 1 | 1 | 2 | 2 | NC(=O)c1cccnc1 [Nicotinamide]

More lines, now with the values behind:

Row | SMILES | XRPD results, primary co-crystal screen post storage at 40° C./75% RH (1,4-Dioxane) | XRPD results, primary co-crystal screen post temperature cycling (1,4-Dioxane) | XRPD results, primary co-crystal screen post storage at 40° C./75% RH (DCM:Methanol (50:50 % v/v)) | XRPD results, primary co-crystal screen post temperature cycling (DCM:Methanol (50:50 % v/v)) | XRPD results, primary co-crystal screen post storage at 40° C./75% RH (THF) | XRPD results, primary co-crystal screen post temperature cycling (THF) | XRPD results, primary co-crystal screen post storage at 40° C./75% RH (DMSO:Water (50:50 % v/v)) | XRPD results, primary co-crystal screen post temperature cycling (DMSO:Water (50:50 % v/v))
5 | N[C@@H](Cc1c[nH]cn1)C(=O)O [L-Histidine] | 4 | 9 | 2 | 2 | 1 | 1 | – | –
6 | O=C(O)[C@@H]1CCCN1 [L-Proline] | 4 | 9 | 2 | 2 | 1 | 1 | – | –
7 | N[C@@H](Cc1c[nH]c2ccccc12)C(=O)O [L-Tryptophan] | – | – | – | 2 | – | – | – | –
